Source: patent US20250312314A1, “METHOD AND COMPOSITION FOR IMPROVING OR MAINTAINING SKIN HEALTH OF MAMMALS” (NANJING NUTRABUILDING BIO-TECH CO., LTD., priority 2022, published 2025)

Columns and labels:
Cutibacterium spp. = experiment: Microbial colonization of reconstructed layered human epidermis, live count; format: cell-based; conditions: 24±2 h
Experimental: (§1) Primary adult human skin fibroblasts were embedded in fibrin matrix to produce dermal equivalent. The dermal equivalent was cultured to allow fibroblasts to reconstruct matrix. Primary neonatal human keratinocytes were applied on the surface of dermal equivalent and cultured in liquid for 48 hours. Culture was carried out on the air-liquid interface (ALI) until a layered epidermis was formed.
(§2) Staphylococcus epidermidis, Corynebacterium spp., Cutibacterium spp., Propionibacterium acnes and Malassezia were cultured in proper culture medium and incubation conditions (37±2° C., 5±1% (v/v) CO2, ≥95% RH). Inoculation buffer (GS25) was used to prepare inoculum containing about 1.1×10^6 cfu mL^−1 microbial flora of the above bacteria. 10 μL of the mixture was used for skin (layered epidermis) colonization, and each unit was colonized with about 10^4 cfu·cm^−2 of each bacterium. After that, the layered epidermis was incubated at 37±2° C., 5±1% (v/v) CO2, ≥95% RH for 3±1 hours.
(§3) α-Glucan Oligosaccharide (α-GO for short) is a famous prebiotic, which can protect skin health by maintaining the balance of microbial population and strengthening the microbial barrier of skin, so the experiment took it as a control. Control (α-GO, 1 μM) and EGT (0 μM, 0.1 μM, 1 μM, 10 μM, 100 μM, 1000 μM) were applied on the layered epidermis respectively, and then incubated for 24±2 hours at 37±2° C., 5±1% (v/v) CO2 and ≥95% RH. Then, the above five kinds of microorganisms were counted respectively to evaluate the inhibitory effect of α-GO and EGT on microbial growth: 8 mm live tissue slices were taken from layered epidermis, and the number of live bacteria (cfu·cm^−2) was evaluated by incubation on appropriate selective solid medium. The choice of solid medium is based on the characteristics of microorganisms themselves.

Corynebacterium spp. = experiment: as above; format: cell-based; conditions: 24±2 h
Experimental: as §1, §2, §3

Propionibacterium acnes = experiment: as above; format: cell-based; conditions: 24±2 h
Experimental: as §1, §2, §3

[1] = test system: Staphylococcus epidermidis; experiment: as above; format: cell-based; conditions: 24±2 h
Experimental: as §1, §2, §3

Malassezia = experiment: as above; format: cell-based; conditions: 24±2 h
Experimental: as §1, §2, §3

Streptococcus = experiment: Relative abundance of Streptococcus in skin of subjects after applying EGT base cream (16S rRNA); format: in vivo, human; conditions: once a day for 4 weeks
Experimental: (§4) Thirty healthy women aged 20-59 were randomly divided into three groups. The first group (0% EGT, n=10) was applied with pure base cream as the control group, the second group (5% EGT, n=10) was applied with base cream mixed with 5% ergothioneine, and the third group (10% EGT, n=10) was applied with base cream mixed with 10% ergothioneine. The applying was performed once a day for 4 weeks. Skin microorganisms were collected on the 0 th and 28 th days respectively, and the elasticity, moisture and desquamation of the skin of the subjects were measured on the 28 th day. Sterile water was used to wash Participants' faces and then applied on solid trypsin soy agar (TSA) medium. Individual colonies were collected and cultured in liquid trypsin soy broth (TSB) medium at 37° C. for 72 hours.
Each sample was centrifuged and the precipitate was collected, and the microbial DNA in the precipitate was extracted with a specific kit. The purity and quantity of DNA were measured by spectrophotometer. The 16S rRNA gene of bacteria was amplified with the following primers: forward, 5′-[…]-3′ (SEQ ID NO: 1); reverse, 5′-[…]-3′ (SEQ ID NO: 2). PCR was carried out in a 25 μL reactor, which contained 2 μL genomic DNA (10 ng/μL), 0.5 μL primers (10 μM), 12.5 μL 2×KAPA HiFi HotStart Ready Mix and 9.5 μL distilled water. […]

[2] = Elasticity, moisture and desquamation of skin of subjects after applying EGT base cream; format: in vivo, human; conditions: once a day for 4 weeks, day 28
Experimental: as §4

[3] = EGT 0.1-1000 μM, effect more significant with increasing concentration

## C[N+](C)(C)[C@@H](Cc1c[nH]c(=S)[nH]1)C(=O)[O-] [EGT, Ergothioneine]
Cutibacterium spp.; [3]
  colonization of Cutibacterium spp. in the layered epidermis (live bacteria count): obviously inhibited
Cutibacterium spp.; same concentration (1 μM)
  inhibitory effect on Cutibacterium spp. compared with α-GO: better inhibitory effect
Corynebacterium spp.; [3]
  colonization of Corynebacterium spp. in the layered epidermis (live bacteria count): obviously inhibited
Corynebacterium spp.; same concentration (1 μM)
  inhibitory effect on Corynebacterium spp. compared with α-GO: better inhibitory effect
Propionibacterium acnes; [3]
  colonization of Propionibacterium acnes in the layered epidermis (live bacteria count): obviously inhibited
Propionibacterium acnes; same concentration (1 μM)
  inhibitory effect on Propionibacterium acnes compared with α-GO: better inhibitory effect
[1]; [3]
  colonization of Staphylococcus epidermidis in the layered epidermis (live bacteria count): obviously inhibited
[1]; same concentration (1 μM)
  inhibitory effect on Staphylococcus epidermidis compared with α-GO: better inhibitory effect
Malassezia; [3]
  colonization of Malassezia in the layered epidermis (live count): obviously inhibited
Malassezia; same concentration (1 μM)
  inhibitory effect on Malassezia compared with α-GO: better inhibitory effect
Streptococcus; 10% EGT base cream
  effect on relative abundance of Streptococcus, 10% EGT group compared with 5% EGT: more obvious
Streptococcus; EGT base cream (5% and 10%), healthy women
  relative abundance (RA) of Streptococcus in skin vs pure base cream group: more abundant
[2]; 10% EGT base cream
  increase of skin elasticity compared with 0% EGT group: about 20%
  increase of skin moisture compared with 0% EGT group: about 45%
  reduction of desquamation compared with 0% EGT group: about 30%
[2]; EGT base cream (5% and 10%)
  skin desquamation: avoid the problem of skin desquamation
  skin elasticity: significantly increase
  skin moisture: significantly increase
